In patent US20190308956A1, “PIPERAZINE DERIVATIVES AS ANTIVIRAL AGENTS WITH INCREASED THERAPEUTIC ACTIVITY” (SERVICIO ANDALUZ DE SALUD, priority 2016, published 2019):

Key:
[1] = test system: HAdV5-GFP; assay: Plaque assay, HAdV5-GFP in 293β5 cells; format: cell-based
Summary of the method: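 293β5 cells infected with HAdV5-GFP at 0.06 vp/cell for 2 h at 37° C. Then overlaid with agar/EMEM containing compound (5 to 1 μM stated range; screen run at 10 μM). After 7 days at 37° C., GFP plaques imaged and counted relative to DMSO control.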

[2] = test system: HAdV16-GFP; assay: Plaque assay, HAdV16-GFP in 293β5 cells; format: cell-based
Description: 1.5. Plaque assay. For low MOI infections, active compounds were further evaluated in a plaque assay. 293β5 cells were seeded in 6-well plates at 4×10^5 cells per well in duplicate for each condition. When cells reached 80-90% confluency, they were infected with HAdV5-GFP or HAdV16-GFP (0.06 vp/cell) and rocked for 2 h at 37° C. The inoculum was removed and the cells were washed once with PBS. The cells were then carefully overlaid with 4 ml/well of equal parts of 1.6% […] Difco Agar Noble (Becton, Dickinson & Co, Sparks, MD) and 2× EMEM (BioWhittaker) supplemented with 2x penicillin/streptomycin, 2× L-glutamine and 10% FBS. The mixture also contained compound in concentrations ranging from 5 to 1 μM. Following incubation for 7 days at 37° C., plates were scanned with a Typhoon 9410 imager (GE Healthcare Life Sciences), and plaques were quantified with ImageJ.43

[3] = Cytotoxicity assay (alamarBlue cell viability); format: cell-based, Human; conditions: human, A549 cells, 48 h
Summary of the method: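 Actively dividing A549 cells exposed to compounds for 48 h, then alamarBlue (1/10th in culture medium) added for a further 4 h. CC50 taken as concentration giving 50% cytotoxicity; selectivity index = CC50/IC50, with IC50 from HAdV infection inhibition.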

[4] = test system: wild-type HAdV5; assay: Virus yield reduction (burst assay, TCID50), HAdV5; format: cell-based; conditions: 50 μM, A549 cells, 48 h, yield with DMSO divided by yield with compound
Description: (§1) 1.8. Virus yield reduction. The effect of the active compounds on virus production was evaluated in a burst assay A549 cells were infected with wild-type HAdV5 or HAdV16 (MOI 100) in the presence or absence of 50 μM compounds. After 48 h, cells were harvested and subjected to three rounds of freeze/thaw. Serial dilutions of clarified lysates were titrated on A549 cells and TCID50 values were calculated using an endpoint dilution method.46

[5] = test system: wild-type HAdV16; assay: Virus yield reduction (burst assay, TCID50), HAdV16; format: cell-based; conditions: 50 μM, A549 cells, 48 h, yield with DMSO divided by yield with compound
Description: as §1

[6] = test system: wild type HAdV5; assay: HAdV5 DNA quantification by real-time PCR; format: cell-based; conditions: A549, 24 h, A549 cells, 24 h post-infection, qPCR, read-out: Inhibition of HAdV5 DNA replication
Description: 1.6. DNA quantification by real-time PCR. For DNA quantification, A549 cells (150,000 cells/well in a 24 wells-plate) were infected with wild type HAdV5 or HAdV16 (100 vp/cell) and incubated for 2 h at 37° C. in complete DMEM. After the incubation, excess virus was removed and the medium was replaced with 500 μl of complete DMEM containing 50 μM of either compounds or the same volume of DMSO (positive control). All samples were done in triplicate. After 24 h of incubation at 37° C., DNA was purified from the cell lysate with the QlAamp DNA Mini Kit (QIAGEN, Valencia, Calif.) following the manufacturer's instructions. TaqMan primers and probes for a region of the HAdV5 hexon were designed with the GenScript Real-time PCR (TaqMan) Primer Design software (GenScript). Oligonucleotides sequences were AdF: 5′-[…]-3′; AdR: 5′-[…]-3′; and AdProbe: 5′-[…]-3′. […]
Human glyceraldehyde-3-phosphate dehydrogenase (GAPDH) gene was used as internal control. Oligonucleotides sequences for GAPDH and conditions were those previously reported by Rivera et al.44 For quantification, gene fragments from hexon and GAPDH were cloned into the pGEM-T Easy vector (Promega) and known concentrations of template were used to generate a standard curve in parallel for each experiment. […]

[7] = test system: HCMV (AD169); assay: HCMV infectivity assay by quantitative PCR; format: cell-based, human cytomegalovirus; conditions: Human betaherpesvirus 5, AD169, MRC5, MRC-5 cells, 72 h, qPCR, read-out: Inhibition of HCMV DNA replication
Description: 1.9. HCMV infectivity assay by quantitative PCR. […] After 72 h of incubation at 37° C., DNA was purified from the cell lysate with the QlAamp DNA Mini Kit (QIAGEN, Valencia, Calif.) following the manufacturer's instructions. TaqMan primers and probes for a region of the US28 gene were designed with the GenScript Real-time PCR (TaqMan) Primer Design software (GenScript). Oligonucleotides sequences were CMV-F: 5′-[…]-3′; CMV-R: 5′-[…]-3′; and CMV-Probe: 5′-[…]-3′. Real-time PCR mixtures consisted of 10 μl the purified DNA, CMV-F at a concentration of 100 nM, CMV-R at a concentration of 300 nM, and CMV-Probe at a concentration of 50 nM in a total volume of 12.5 μl and mixed with 12.5 μl of KAPA PROBE FAST qPCR Master Mix (KAPABiosystems, MA). The PCR cycling protocol was 95° C. for 10 min followed by 40 cycles of 95° C. for 30 sec and 58° C. for 60 sec. Human glyceraldehyde-3-phosphate dehydrogenase (GAPDH) was used as internal control. Oligonucleotides sequences for GAPDH and conditions were those previously reported by Rivera et al.44 For quantification, gene fragment from US28 and GAPDH were cloned into the pGEM-T Easy vector (Promega) and known concentrations of template were used to generate a standard curve in parallel for each experiment. All assays were performed in a C1000 Thermal Cycler apparatus (BioRad).

With `O=C(c1cc2ccccc2o1)N1CCN(C(=O)Nc2cc(C(F)(F)F)ccc2Cl)C(c2ccccc2)C1` (stereo not shown) [Compound 65, 4-(Benzofuran-2-carbonyl)-1-[(2-chloro-5-trifluoromethylphenyl)aminocarbonyl]-2 phenylpiperazine] the “Selectivity Index (SI) HAdV5” value ([1]; ratio CC50 to IC50, HAdV5) was 116.2, the IC50 ([1]; read-out: IC50 HAdV5) was 1100 ± 50 nM and the inhibition at 10 µM ([1]; read-out: Percentage of plaque formation inhibition, HAdV5-GFP, 10 μM, 293β5 cell line) was 96 to 100%. The IC50 [2] was 1800 ± 200 nM, the “Selectivity Index (SI) HAdV16” value ([2]; ratio CC50 to IC50, HAdV16) was 72.7 and the CC50 at 48 h [3] was 131000 ± 17800 nM. For the same compound, the “Virus yield reduction HAdV5” value [4] was 60.3 ± 15.2 fold, the “Virus yield reduction HAdV16” value [5] was 33.2 ± 7.3 fold and the inhibition at 50 µM [6] was 33.1 ± 0.5%. It also gave an inhibition at 50 µM [7] of 98.2 ± 0.38%.
